Experiments:
[1] = tested on: MARCKS phosphorylation in NHBE cells; assay: MARCKS phosphorylation in NHBE cells, radiolabeled immunoprecipitation assay; assay type: cell-based, human
Protocol: Radiolabeled Immunoprecipitation Assay—When labeling with [^32P]phosphate, cells were preincubated for 2 h in phosphate-free Dulbecco's modified Eagle's medium containing 0.2% bovine serum albumin and then labeled with 0.1 mCi/ml [^32P]orthophosphate (9000 Ci/mmol, PerkinElmer Life Sciences) for 2 h. For labeling with [^3H]myristic acid or 3H-amino acids, cells were incubated overnight in medium containing 50 μCi/ml [^3H]myristic acid (49 Ci/mmol, PerkinElmer Life Sciences) or 0.2 mCi/ml [^3H]leucine (159 Ci/mmol, PerkinElmer Life Sciences) plus 0.4 mCi/ml [^3H]proline (100 Ci/mmol, PerkinElmer Life Sciences). Following labeling, cells were exposed to stimulatory reagents for 5 min. When an inhibitor was used, cells were preincubated with the inhibitor for 15 min prior to stimulation. At the end of the treatments, cells were lysed in a buffer containing 50 mM Tris-HCl (pH 7.5), 150 mM NaCl, 1 mM EDTA, 10% glycerol, 1% Nonidet P-40, 1 mM phenylmethylsulfonyl fluoride, 1 mM benzamidine, 10 μg/ml pepstatin A, and 10 μg/ml leupeptin. Trichloroacetic acid precipitation and scintillation counting may determine the radiolabeling efficiency in each culture. Immunoprecipitation of MARCKS protein was carried out according to the method of Spizz and Blackshear using cell lysates containing equal counts/min. Spizz et al., J. Biol. Chem. 271, 553-562 (1996). Precipitated proteins were resolved by 8% SDS-polyacrylamide gel electrophoresis and visualized by autoradiography. Anti-human MARCKS antibody (2F12) and nonimmune control antibody (6F6) were used in this assay.
To assess MARCKS or MARCKS-associated protein complexes in different subcellular fractions, radiolabeled and treated cells were scraped into a homogenization buffer (50 mM Tris-HCl (pH 7.5), 10 mM NaCl, 1 mM EDTA, 1 mM phenylmethylsulfonyl fluoride, 1 mM benzamidine, 10 μg/ml pepstatin A, 10 μg/ml leupeptin) and then disrupted by nitrogen cavitation (800 pounds/square inch for 20 min at 4° C.). Cell lysates were centrifuged at 600×g for 10 min at 4° C. to remove nuclei and unbroken cells. Post-nuclear supernatants were separated into membrane and cytosol fractions by ultracentrifugation at 400,000×g for 30 min at 4° C. The membrane pellet was solubilized in the lysis buffer by sonication. Immunoprecipitation was then carried out as described above.

PP1 = assay: Protein phosphatase activity assay in NHBE cell lysates, PP1; assay type: cell-based, human; conditions: NHBE cells after 8-Br-cGMP
Protocol: (§1) Protein Phosphatase Activity Assay—PP1 and PP2A activities were measured using a protein phosphatase assay system (Life Technologies, Inc.) as known in the art with slight modification. Huang et al., Adv. Exp. Med Biol. 396, 209-215 (1996). Briefly, NHBE cells were treated with 8-Br-cGMP or medium alone for 5 min. Cells were then scraped into a lysis buffer (50 mM Tris-HCl (pH 7.4), 0.1% β-mecaptoethanol, 0.1 mM EDTA, 1 mM benaamidine, 10 μg/ml pepstatin A, 10 μg/ml leupeptin) and disrupted by sonication for 20 s at 4° C. Cell lysates were centrifuged and the supernatants saved for phosphatase activity assay. The assay was performed using ^32P-labeled phosphorylase A as a substrate. Released ^32Pi was counted by scintillation. The protein concentration of each sample was determined by the Bradford assay. PP2A activity was expressed as the sample total phosphatase activity minus the activity remaining in the presence of 1 nM okadaic acid. PP1 activity was expressed as the difference between the activities remaining in the presence of 1 nM and 1 μM okadaic acid, respectively. Protein phosphatase activities were reported as nmol of Pi released per min/mg total protein.

PP2A [2] = assay: Protein phosphatase activity assay in NHBE cell lysates, PP2A; assay type: cell-based, human
Protocol: as §1

[3] = tested on: isolated human neutrophils; assay: MPO secretion from isolated human neutrophils stimulated with PMA + 8-Br-cGMP (FIG. 7, 8, 9); assay type: cell-based; conditions: FIG. 9; 8-Br-cGMP alone, until co-stimulation with PMA
[4] = tested on: isolated canine neutrophils; assay: MPO secretion from isolated canine neutrophils stimulated with PMA + 8-Br-cGMP (FIG. 6, 10, 11); assay type: cell-based; conditions: FIG. 11; 8-Br-cGMP alone, until co-stimulation with PMA
Excerpt: The invention also relates to a new method for blocking any cellular exocytotic secretory process, especially those releasing inflammatory mediators from granules contained within inflammatory cells, whose stimulatory pathways involve the protein kinase C (PKC) substrate MARCKS protein and release of contents from membrane-bound vesicles. Specifically, the inventors have shown that stimulated release of the inflammatory mediator myloperoxidase from human (FIG. 6) or canine (FIG. 7) neutrophils can be blocked in a concentration-dependent manner by the MANS peptide. […] 10 or 100 μM of a control peptide (RNS) has no effect on MPO secretion. In FIG. 7, isolated neutrophils were stimulated to secrete myloperoxidase (MPO) with 100 nM PMA and 10 μM 8-Br-cGMP. […] 10 or 100 μM of a control peptide (RNS) has no effect on MPO secretion. Thus, the peptide may be used therapeutically to block the release of mediators of inflammation secreted from infiltrating inflammatory cells in any tissues. Many of these released mediators are responsible for the extensive tissue damage observed in a variety of chronic inflammatory diseases (i.e., respiratory diseases such as asthma, chronic bronchitis and COPD, inflammatory bowel diseases including ulcerative colitis and Crohn's disease, autoimmune diseases, skin diseases such as rosacea, eczema; and severe acne, arthritic and pain syndromes such as rheumatoid arthritis and fibromyalgia). This invention may be useful for treating diseases such as arthritis, chronic bronchitis, COPD and cystic fibrosis. This invention is accordingly useful for the treatment in both human and animal diseases, especially those affecting equines, canines, felines, and other household pets.
FIGS. 8-12 show MPO secretion for both humans and canines. In all of these experiments, isolated neutrophils were stimulated with LPS at a concentration of 1×10^−6 M for 10 minutes at 37° C. prior to adding the stimuli as indicated in the figures. The LPS primes the cells so they can respond to a secretagogue.
Isolation of PMNs from canine blood—The steps involved in isolating PMN include collecting 10 ml ACD anticoagulated blood. Then layering 5 ml on 3.5 ml PMN isolation media while ensuring that the PMN isolation media (IM) was at room temperature (RI). Next, the blood was centrifuged at room temperature for 30′, 550×g at 1700 RPMs. The low lower white band was transferred into 15 ml conical centrifuge tube (CCFT). Next, 2V HESS with 10% fetal bovine serum […] was added and centrifuged at room temperature for 10′, 400×g at 1400 RPMs. The pellet was then resuspended in 5 ml 1-1ESS with PBS. The cell suspension was added to 50 ml CCFT containing 20 ml of ice cold 0.88% NH4Cl and inverted two to three times. The resulting product was centrifuged for 10′, 800×g at 2000 RPMs, then aspirated and resuspended in 5 ml HBSS with FBS. The prep was examined by counting and cytospin and preferably for whole blood, the cell number should be between 10^9-10^11 cells and for PMNs, cell number should be between 2-4×10^7 cells. See generally, Wang et al., J. Immunol., “Neutrophil-induced changes in the biomechanical properties of endothelial cells: roles of ICAM-1 and reactive oxygen species,” 6487-94 (2000).
MPO Colorimetric Enzyme Assay—Samples were assayed for MPO activity in 96 well round bottom microtiter plates using a sandwich ELISA kit (R & D Systems, Minneapolis, Minn.). […]

PP2A [5] = biological target: PP2A (Homo sapiens, UniProt P67775); conditions: inhibitor of PP2A; cited from earlier work
NHBE cells = assay: Mucin secretion from NHBE cells, ELISA; assay type: cell-based, human; conditions: FIG. 3; NHBE cells preincubated 15 min; okadaic acid 500 nM, fostriecin indicated concentrations
Protocol: It is believed that PKG acts to dephosphorylate MARCKS via activation of a protein phosphatase. […] NHBE cells were preincubated with the indicated concentration of fostriecin, okadaic acid (500 nM), or medium alone for 15 min and then stimulated with PMA (100 nM)+8-Br-cGMP (1 μM) for 15 min or with UTP (100 μM) for 2 h. Secreted mucin was measured by ELISA. […] Thus, dephosphorylation of MARCKS by a PKG-activated PP2A appears to be an essential component of the signaling pathway leading to mucin granule exocytosis.
MARCKS-related Peptides—Both the myristoylated N-terminal sequence (MANS) and the random N-terminal sequence (RNS) peptides were synthesized at Genemed Synthesis, Inc. (San Francisco, Calif.), then purified by high pressure liquid chromatography (>95% pure), and confirmed by mass spectroscopy with each showing one single peak with an appropriate molecular mass. The MANS peptide consisted of sequence identical to the first 24 amino acids of MARCKS, i.e. the myristoylated N-terminal region that mediates MARCKS insertion into membranes, MA-[…] […]

Sequence of PP2A (Homo sapiens, UniProt P67775) (P67775 whole entry): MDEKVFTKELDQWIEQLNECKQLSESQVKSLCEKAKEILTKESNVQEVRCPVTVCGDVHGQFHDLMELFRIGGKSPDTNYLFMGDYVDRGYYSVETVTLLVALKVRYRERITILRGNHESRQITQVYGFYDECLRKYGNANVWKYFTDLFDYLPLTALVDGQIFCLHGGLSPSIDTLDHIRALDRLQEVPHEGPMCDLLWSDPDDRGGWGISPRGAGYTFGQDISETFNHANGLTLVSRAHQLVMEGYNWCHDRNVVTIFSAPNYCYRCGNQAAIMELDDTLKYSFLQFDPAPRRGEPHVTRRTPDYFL

Compound: Nc1nc2c(nc(Br)n2[C@@H]2O[C@@H]3COP(=O)(O)O[C@H]3[C@H]2O)c(=O)[nH]1 [8-Br-cGMP]
- effect on MARCKS phosphorylation induced by PMA ([1]; 1 μM 8-Br-cGMP, 100 nM PMA): reversed
- PP1 activity (PP1): remained unchanged
- PP2A activity (PP2A [2]; NHBE cells after 8-Br-cGMP, from 0.1): 0.3 nmol/min/mg proteins
- increase of PP2A activity (PP2A [2]; NHBE cells, 8-Br-cGMP as low as 0.1 μM, p<0.01): approximately 3 fold
- MPO secretion from LPS-stimulated human neutrophils [3]: little effect
- MPO secretion from LPS-stimulated canine neutrophils [4]: little effect

Compound: C[C@@](O)(/C=C/[C@H]1CC=CC(=O)O1)[C@@H](C[C@@H](O)\C=C/C=C\C=C\CO)OP(=O)(O)O [fostriecin]
- effect on PKG-induced MARCKS dephosphorylation ([1]; fostriecin 1-500 nM): inhibited PKG-induced MARCKS dephosphorylation in a concentration-dependent manner
- IC50 (PP2A [5]): 3.2 nM
- mucin secretion induced by PMA+8-Br-cGMP or UTP (NHBE cells): attenuated mucin secretion

Compound: C=C1[C@@H](O)[C@@H]2O[C@]3(CC[C@H](/C=C/[C@@H](C)[C@@H]4CC(C)=C[C@@]5(O[C@H](C[C@@](C)(O)C(=O)O)CC[C@H]5O)O4)O3)CC[C@H]2O[C@@H]1[C@@H](O)C[C@H](C)[C@H]1O[C@@]2(CCCCO2)CC[C@H]1C [okadaic acid]
- effect on PKG-induced MARCKS dephosphorylation ([1]; 500 nM okadaic acid): blocked
- mucin secretion induced by PMA+8-Br-cGMP or UTP (NHBE cells): attenuated mucin secretion

Compound: calphostin C
- effect on PMA-induced MARCKS phosphorylation ([1]; 500 nM calphostin C + 100 nM PMA): attenuated
